Laboratory results published in patent publication US9334246B2, “Substituted triazines for malaria treatment and chemoprophylaxis” (The United States of America, as represented by the …, priority 2013, dated 2016).

Key:
P. falciparum W2 = test: Malaria SYBR Green Fluorescence Assay, W2 strain; format: cell-based, Plasmodium falciparum; conditions: for W2: SYBR Green Assay
P. falciparum D6 = test: Malaria SYBR Green Fluorescence Assay, D6 strain; format: cell-based, Plasmodium falciparum; conditions: for D6: SYBR Green Assay
P. falciparum C235 = test: Malaria SYBR Green Fluorescence Assay, C235 strain; format: cell-based, Plasmodium falciparum; conditions: for C235: SYBR Green Assay
[1] = target: hERG potassium ion channel (Homo sapiens, UniProt Q12809); test: hERG patch clamp assay (% inhibition at 10 μM); conditions: for hERG (% inhibition): 10 μM
[2] = % inhibition at 10 μM, patch clamp

hERG potassium ion channel, sequence (Q12809 whole entry): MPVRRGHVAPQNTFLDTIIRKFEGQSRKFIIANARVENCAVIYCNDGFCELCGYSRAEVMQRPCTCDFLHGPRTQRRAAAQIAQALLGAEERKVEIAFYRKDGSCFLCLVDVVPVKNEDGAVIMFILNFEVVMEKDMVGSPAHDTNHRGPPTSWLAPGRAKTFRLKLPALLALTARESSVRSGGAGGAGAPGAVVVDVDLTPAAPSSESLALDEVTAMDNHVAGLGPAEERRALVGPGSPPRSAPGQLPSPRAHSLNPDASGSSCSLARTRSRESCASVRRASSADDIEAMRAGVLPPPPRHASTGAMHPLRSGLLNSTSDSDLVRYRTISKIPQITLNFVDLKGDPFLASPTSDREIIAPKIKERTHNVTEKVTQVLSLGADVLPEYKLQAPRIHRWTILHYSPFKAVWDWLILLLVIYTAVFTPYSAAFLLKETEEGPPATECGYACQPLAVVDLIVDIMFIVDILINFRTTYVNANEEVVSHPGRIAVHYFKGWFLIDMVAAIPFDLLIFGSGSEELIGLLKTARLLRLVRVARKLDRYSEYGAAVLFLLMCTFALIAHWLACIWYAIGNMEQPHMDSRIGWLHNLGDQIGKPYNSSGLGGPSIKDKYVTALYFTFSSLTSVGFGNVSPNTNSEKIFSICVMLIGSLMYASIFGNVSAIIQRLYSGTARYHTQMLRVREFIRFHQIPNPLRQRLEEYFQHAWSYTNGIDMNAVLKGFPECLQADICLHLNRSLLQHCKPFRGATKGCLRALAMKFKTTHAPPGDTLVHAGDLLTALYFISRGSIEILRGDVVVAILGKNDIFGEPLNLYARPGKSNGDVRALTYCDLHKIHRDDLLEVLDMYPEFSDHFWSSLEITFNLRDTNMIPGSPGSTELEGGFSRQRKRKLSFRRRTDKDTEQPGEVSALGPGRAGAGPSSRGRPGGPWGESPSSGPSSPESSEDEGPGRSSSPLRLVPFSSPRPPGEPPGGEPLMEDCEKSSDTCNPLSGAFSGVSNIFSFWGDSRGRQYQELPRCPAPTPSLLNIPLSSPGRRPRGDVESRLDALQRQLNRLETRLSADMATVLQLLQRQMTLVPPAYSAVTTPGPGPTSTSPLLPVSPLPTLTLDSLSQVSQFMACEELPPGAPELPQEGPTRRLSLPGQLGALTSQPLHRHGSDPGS

| Compound | W2 (P. falciparum W2) [ng/mL] | D6 (P. falciparum D6) [ng/mL] | C235 (P. falciparum C235) [ng/mL] | hERG [1, 2] [%] | W2 (SYBR Green Assay IC50) (P. falciparum W2) [µg/mL] | D6 (SYBR Green Assay IC50) (P. falciparum D6) [µg/mL] | C235 (SYBR Green Assay IC50) (P. falciparum C235) [µg/mL] | hERG (% inhibition) [1] [%] | hERG ([1]; hERG activity as % inhibition) [%] |
| --- | --- | --- | --- | --- | --- | --- | --- | --- | --- |
| CCN1CCCC(Nc2nc(-c3ccc(C)cc3)nc(C(Cl)(Cl)Cl)n2)C1 (stereo not shown) [Cmpd 80] | 90 | 135 | 129 | 97 | – | – | – | – | – |
| CN1CCC(Nc2nc(-c3cccc(C(F)(F)F)c3)nc(C(Cl)(Cl)Cl)n2)CC1 [Cmpd 212] | 16 | 45 | 25 | 80 | – | – | – | – | – |
| CCC(N)(CC)CNc1nc(-c2ccc3ccccc3c2)nc(C(Cl)(Cl)Cl)n1 [Cmpd 377] | – | – | – | – | 0.006 | 0.002 | 0.008 | 25 | – |
| CN1CCC(Nc2nc(-c3ccccc3)nc(C(Cl)(Cl)Cl)n2)CC1 [Cmpd 237] | 32 | 47 | 31 | 107 | – | – | – | – | – |
| CN1CCN(CC1)c2ccc(Nc3nc(NCCN4CCCC4)nc(n3)C(Cl)(Cl)Cl)cc2 [Compound 733] | 36 | 117 | 87 | – | – | – | – | – | 55 |
| COc1cccc(-c2nc(NCCN3CCCC3)nc(C(Cl)(Cl)Cl)n2)c1 [Cmpd 192] | 13 | 18 | 12 | 100 | – | – | – | – | – |
| CCN(CC)CC(C)Nc1nc(Nc2ccc(Cl)c(Cl)c2)nc(n1)C(Cl)(Cl)Cl [Compound 642] | – | – | – | – | 0.003 | 0.005 | 0.013 | 76 | – |
| COc1ccc(cc1)c2nc(nc(n2)C(Cl)(Cl)Cl)N3CC4CC3CN4 [Compound 718] | 77.35 | 278.6 | 139.2 | – | – | – | – | – | 23.5 |
| CN1CCCC1CCNc1nc(-c2ccc(Cl)cc2)nc(C(Cl)(Cl)Cl)n1 (stereo not shown) [Cmpd 91] | 19 | 31 | 32 | 79 | – | – | – | – | – |
| CN1CCN(c2nc(-c3ccc(Cl)c(Cl)c3)nc(C(Cl)(Cl)Cl)n2)CC1 [Cmpd 22] | – | – | – | 33 | – | – | – | – | – |
| CC(CN(C)C)Nc1nc(Nc2cc(Cl)cc(Cl)c2)nc(n1)C(Cl)(Cl)Cl [Compound 639] | – | – | – | – | 0.007 | 0.013 | 0.009 | 25 | – |
| CSc1ccc(-c2nc(NCCN3CCCC3)nc(C(Cl)(Cl)Cl)n2)cc1 [Cmpd 47] | – | – | – | 95 | – | – | – | – | – |
| Clc1cc(Cl)cc(-c2nc(NCCN3CCCC3)nc(C(Cl)(Cl)Cl)n2)c1 [Cmpd 202] | 10 | 7 | 7 | 51 | – | – | – | – | – |
| CN1CCCC1CCNc1nc(-c2ccc(F)cc2)nc(C(Cl)(Cl)Cl)n1 (stereo not shown) [Cmpd 382] | – | – | – | – | 0.02 | 0.017 | 0.036 | 105 | – |
| COc1ccccc1-c1nc(NCC(C)(C)N)nc(C(Cl)(Cl)Cl)n1 [Cmpd 217] | 20 | 43 | 20 | 62 | – | – | – | – | – |
| CCN(CC)CCNc1nc(-c2ccc3ccccc3c2)nc(C(Cl)(Cl)Cl)n1 [Cmpd 220] | 8 | 40 | 12 | 66 | – | – | – | – | – |
| CCN(CC)CC(C)Nc1nc(Nc2cc(Cl)cc(Cl)c2)nc(n1)C(Cl)(Cl)Cl [Compound 644] | – | – | – | – | 0.009 | 0.131 | 0.014 | 100 | – |
| ClC(Cl)(Cl)c1ccc(-c2nc(NCCc3ccccn3)nc(C(Cl)(Cl)Cl)n2)cc1 [Cmpd 163] | 20 | 50 | 61 | 5 | – | – | – | – | – |
| CC1(C)CC(Nc2nc(-c3ccc(C(C)(C)C)cc3)nc(C(Cl)(Cl)Cl)n2)CC(C)(C)N1 [Cmpd 321] | 3 | 6 | 11 | 11 | – | – | – | – | – |
| COc1ccc(-c2nc(NCc3ccncc3)nc(C(Cl)(Cl)Cl)n2)cc1 [Cmpd 130] | 5 | 12 | 24 | 20 | – | – | – | – | – |
| CS(=O)(=O)c1ccc(-c2nc(NCCN3CCCC3)nc(C(Cl)(Cl)Cl)n2)cc1 [Cmpd 39] | 45 | 85 | 92 | 90 | – | – | – | – | – |
| CCN(CC)CCNc1nc(Cc2ccc(OC)cc2)nc(C(Cl)(Cl)Cl)n1 [Cmpd 59] | 153 | 290 | 288 | 100 | – | – | – | – | – |
| COc1ccccc1Nc1nc(N2CCN(C)CC2)nc(C(Cl)(Cl)Cl)n1 [Cmpd 65] | 32 | 32 | 31 | 83 | – | – | – | – | – |
| CC(C)(C)c1ccc(-c2nc(NCCCN3CCCC3)nc(C(Cl)(Cl)Cl)n2)cc1 [Cmpd 34] | 141 | 152 | 152 | 80.9 | – | – | – | – | – |

| Compound | W2 (P. falciparum W2) [ng/mL] | D6 (P. falciparum D6) [ng/mL] | C235 (P. falciparum C235) [ng/mL] | hERG [1, 2] [%] | W2 (SYBR Green Assay IC50) (P. falciparum W2) [µg/mL] | D6 (SYBR Green Assay IC50) (P. falciparum D6) [µg/mL] | C235 (SYBR Green Assay IC50) (P. falciparum C235) [µg/mL] | hERG (% inhibition) [1] [%] | hERG ([1]; hERG activity as % inhibition) [%] |
| --- | --- | --- | --- | --- | --- | --- | --- | --- | --- |
| ClC(C1═NC(NCCO)═NC(C2═CC(C(F)(F)F)═CC═C2)═N1)(Cl)Cl [Compound 647] | – | – | – | – | 0.023 | 0.035 | 0.039 | 100 | – |
| CN(C)C1CCN(c2nc(-c3ccc(Cl)c(Cl)c3)nc(C(Cl)(Cl)Cl)n2)C1 (stereo not shown) [Cmpd 20] | – | – | – | 50 | – | – | – | – | – |
| Clc1ccc(-c2nc(N3CCOCC3)nc(C(Cl)(Cl)Cl)n2)cc1 [Cmpd 31] | – | – | – | 12 | – | – | – | – | – |
| Clc1ccc(-c2nc(N3CCNCC3)nc(C(Cl)(Cl)Cl)n2)cc1Cl [Cmpd 25] | – | – | – | 10 | – | – | – | – | – |
| CC(C)(C)c1ccc(-c2nc(N3CCC(N)CC3)nc(C(Cl)(Cl)Cl)n2)cc1 [Compound 624, CC(C)(C)C1═CC═C(C═C1)C1═NC(═NC(═N1)C(Cl)(Cl)Cl)N1CCC(N)CC1] | – | – | – | – | 0.043 | 0.091 | 0.062 | – | – |
| FC(F)(F)c1cccc(-c2nc(NCCc3cnccn3)nc(C(Cl)(Cl)Cl)n2)c1 [Cmpd 539] | – | – | – | – | 0.098 | 0.325 | 0.27 | – | – |
| CN1CCC(CNc2nc(-c3ccc(Cl)c(Cl)c3)nc(C(Cl)(Cl)Cl)n2)CC1 [Cmpd 505] | – | – | – | – | 0.017 | 0.029 | 0.02 | – | – |
| NC1(CNc2nc(-c3ccc(Cl)cc3)nc(C(Cl)(Cl)Cl)n2)CCOCC1 [Cmpd 333] | 15 | 26 | 40 | – | – | – | – | – | – |
| ClC(Cl)(Cl)c1nc(Nc2ccc(cc2)n3cccn3)nc(n1)C(Cl)(Cl)Cl [Compound 732] | 160 | 386 | 584 | – | – | – | – | – | – |
| CC(C)(N)CNc1nc(-c2ccc(F)cc2)nc(C(Cl)(Cl)Cl)n1 [Cmpd 389] | – | – | – | – | 0.013 | 0.03 | 0.045 | – | – |
| Clc1ccc(cc1)c2nc(nc(n2)C(Cl)(Cl)Cl)N3CC4CC3CN4 [Compound 717] | 163 | 259 | 264 | – | – | – | – | – | – |
| CC(C)N1CCC(CNc2nc(-c3ccc(Cl)cc3)nc(C(Cl)(Cl)Cl)n2)CC1 [Cmpd 487] | – | – | – | – | 0.019 | 0.064 | 0.033 | – | – |
| Cc1ccc(-c2nc(NCCc3cccnc3)nc(C(Cl)(Cl)Cl)n2)cc1 [Cmpd 172] | 106 | 209 | 346 | – | – | – | – | – | – |
| NC1CCN(CC1)C1═NC(═NC(═N1)C(Cl)(Cl)Cl)C1═CC(Cl)═CC(Cl)═C1 [Compound 631] | – | – | – | – | 0.153 | 0.291 | 0.219 | – | – |
| ClC(Cl)(Cl)c1nc(Nc2ccncc2)nc(-c2ccc(N3CCCC3)cc2)n1 [Compound 744, ClC(Cl)(Cl)C1═NC(NC2═CC═NC═C2)═NC(═N1)C1═CC═C(C═C1)N1CCCC1] | 188 | 190 | 290 | – | – | – | – | – | – |
| CN1CCC(CNc2nc(-c3ccccc3[N+](=O)[O-])nc(C(Cl)(Cl)Cl)n2)CC1 [Cmpd 516] | – | – | – | – | 0.083 | 0.292 | 0.181 | – | – |
| NC1(CNc2nc(-c3ccc(C(Cl)(Cl)Cl)cc3)nc(C(Cl)(Cl)Cl)n2)CCOCC1 [Cmpd 311] | 47 | 81 | 169 | – | – | – | – | – | – |
| OCCN1CCCN(c2nc(-c3cccc(C(F)(F)F)c3)nc(C(Cl)(Cl)Cl)n2)CC1 [Cmpd 456] | – | – | – | – | 0.091 | 0.207 | 0.136 | – | – |
| Cc1ccc(-c2ccccc2-c2nc(NCCCN(C)C)nc(C(Cl)(Cl)Cl)n2)cc1 [Cmpd 446] | – | – | – | – | 0.223 | 0.482 | 0.535 | – | – |
| CN1CCC(Nc2nc(-c3ccc(F)cc3)nc(C(Cl)(Cl)Cl)n2)CC1 [Cmpd 385] | – | – | – | – | 0.039 | 0.028 | 0.057 | – | – |
| COc1ccc(Nc2nc(N3CCN(C)CC3)nc(C(Cl)(Cl)Cl)n2)cn1 [Cmpd 345] | 199 | 267 | 1100 | – | – | – | – | – | – |
| COc1ccc(-c2nc(N3CCCNCC3)nc(C(Cl)(Cl)Cl)n2)cc1 [Cmpd 101] | 117 | 182 | 158 | – | – | – | – | – | – |
| ClC(Cl)(Cl)c1nc(NCCN2CCCC2)nc(-c2ccccc2)n1 [Cmpd 405] | – | – | – | – | 0.016 | 0.027 | 0.045 | – | – |
